Assay results reported in US10239887B2, “Positive allosteric modulators of the muscarinic acetylcholine receptor M4” (Vanderbilt University, priority 2016, dated 2019).
Structures can show the parent of a compound that is named as a salt. Where two headings read alike, the source gives them in different places.

Target: T1, human mAChR M4 (Homo sapiens, UniProt P08173)
T1 sequence (P08173 1-479): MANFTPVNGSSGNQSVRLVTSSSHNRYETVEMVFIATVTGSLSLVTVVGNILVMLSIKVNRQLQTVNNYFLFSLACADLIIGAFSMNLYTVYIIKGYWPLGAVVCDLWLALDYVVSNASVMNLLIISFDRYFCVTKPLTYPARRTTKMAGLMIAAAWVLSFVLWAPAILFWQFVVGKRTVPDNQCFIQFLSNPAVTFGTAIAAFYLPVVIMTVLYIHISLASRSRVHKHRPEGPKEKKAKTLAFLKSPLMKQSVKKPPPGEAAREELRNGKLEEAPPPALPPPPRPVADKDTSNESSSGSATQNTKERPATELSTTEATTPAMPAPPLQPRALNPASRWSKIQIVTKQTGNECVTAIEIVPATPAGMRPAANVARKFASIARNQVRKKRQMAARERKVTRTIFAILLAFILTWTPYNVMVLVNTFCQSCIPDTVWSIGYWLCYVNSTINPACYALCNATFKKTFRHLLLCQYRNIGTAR
Experiment: mAChR M4 cell-based functional assay (calcium flux), human M4
Settings: for EC50: Human M4 EC50, CHO-K1 hM4-Gqi5 cells, calcium flux, increase in EC20 acetylcholine response

[1] = Human M4, % ACh maximum at 30 μM

| Emax [1] | EC50 | Compound | Emax |
| --- | --- | --- | --- |
| 40% |  | Cc1cnc2sc3c(N4CCCC4)ncnc3c2c1 [Compound 15, 8-methyl-4-(pyrrolidin-1-yl) pyrido[3′,2′:4,5]thieno [3,2-d]pyrimidine] |  |
| 360% | 377 nM | Cc1cnc2sc3c(N4CCC(F)(F)C4)ncnc3c2c1 [Compound 16, 4-(3,3-difluoropyrrolidin-1-yl)-8-methylpyrido [3′,2′:4,5]thieno[3,2-d] pyrimidine] |  |
| 64% | 426 nM | Cc1nnc2sc3c(N4CC(F)(F)C4)ncnc3c2c1C [Compound 21, 8-(3,3-difluoroazetidin-1-yl)-3,4-dimethylpyrimido [4′,5′:4,5]thieno[2,3-c] pyridazine] |  |
| 36% | ≥ 10000 nM | Cc1nnc2sc3c(NC4CN(c5ccc(C(F)(F)F)nc5)C4)ncnc3c2c1C [Compound 22, 3,4-dimethyl-N-(1-(6-(trifluoromethyl)pyridin-3-yl)azetidin-3-yl) pyrimido[4′,5′:4,5]thieno [2,3-c]pyridazin-8-amine] |  |
| 27% | ≥ 10000 nM | Cc1nnc2sc3c(NC4CCN(c5ccccc5)C4)ncnc3c2c1C (stereo not drawn) [Compound 23, 3,4-dimethyl-N-(1-phenylpyrrolidin-3-yl) pyrimido[4′,5′:4,5]thieno [2,3-c]pyridazin-8-amine] |  |
| 79% | 468 nM | Cc1nnc2sc3c(NC4CC4)ncnc3c2c1C [Compound 25, N-cyclopropyl-3,4-dimethylpyrimido [4′,5′:4,5]thieno[2,3-c] pyridazin-8-amine] |  |
| 44% | ≥ 10000 nM | COc1ccc(C2CC2Nc2ncnc3c2sc2nnc(C)c(C)c23)cc1 (stereo not drawn) [Compound 26, N-(2-(4-methoxyphenyl)cyclopropyl)-3,4-dimethylpyrimido [4′,5′:4,5]thieno[2,3-c] pyridazin-8-amine] |  |
| 62% |  | COc1ccc(CNc2ncnc3c2sc2nnc(C)c(C)c23)cc1F [Compound 27, N-(3-fluoro-4-methoxybenzyl)-3,4-dimethylpyrimido [4′,5′:4,5]thieno[2,3-c] pyridazin-8-amine] |  |
| 49% |  | Cc1nnc2sc3c(N4CCC(c5ccccc5)C4)ncnc3c2c1C (stereo not drawn) [Compound 28, 3,4-dimethyl-8-(3-phenylpyrrolidin-1-yl) pyrimido[4′,5′:4,5]thieno [2,3-c]pyridazine] |  |
| 61% | 4050 nM | Cc1nnc2sc3c(NCc4ccc(-c5cccnc5F)cc4)ncnc3c2c1C [Compound 29, N-(4-(2-fluoropyridin-3-yl)benzyl)-3,4-dimethylpyrimido [4′,5′:4,5]thieno[2,3-c] pyridazin-8-amine] |  |
| 65% | 2610 nM | Cc1nnc2sc3c(N4CC(Oc5ccc(F)cc5)C4)ncnc3c2c1C [Compound 30, 8-(3-(4-fluorophenoxy)azetidin-1-yl)-3,4-dimethylpyrimido [4′,5′:4,5]thieno[2,3-c] pyridazine] |  |
| 60% | 2160 nM | Cc1nnc2sc3c(N4CC(Oc5ccccc5F)C4)ncnc3c2c1C [Compound 31, 8-(3-(2-fluorophenoxy)azetidin-1-yl)-3,4-dimethylpyrimido [4′,5′:4,5]thieno[2,3-c] pyridazine] |  |
| 62% | 1760 nM | Cc1nnc2sc3c(N4CC(Oc5cccc(F)c5)C4)ncnc3c2c1C [Compound 32, 8-(3-(3-fluorophenoxy)azetidin-1-yl)-3,4-dimethylpyrimido [4′,5′:4,5]thieno[2,3-c] pyridazine] |  |
| 54% | 4430 nM | Cc1nnc2sc3c(N4CC(Oc5ccccc5)C4)ncnc3c2c1C [Compound 33, 3,4-dimethyl-8-(3-phenoxyazetidin-1-yl) pyrimido[4′,5′:4,5]thieno [2,3-c]pyridazine] |  |
| 59% | 660 nM | Cc1nnc2sc3c(N4CC(C)(O)C4)ncnc3c2c1C [Compound 34, 1-(3,4-dimethylpyrimido [4′,5′:4,5]thieno[2,3-c]pyridazin-8-yl)-3-methylazetidin-3-ol] |  |
| 79% | 53 nM | CC(=O)N1CC(Nc2ncnc3c2sc2nnc(C)c(C)c23)C1 [Compound 35, 1-(3-((3,4-dimethylpyrimido [4′,5′:4,5]thieno[2,3-c]pyridazin-8-yl)amino)azetidin-1-yl)ethan-1-one] |  |
| 64% | 1000 nM | Cc1nnc2sc3c(N4CC(=O)C4)ncnc3c2c1C [Compound 36, 1-(3,4-dimethylpyrimido [4′,5′:4,5]thieno[2,3-c]pyridazin-8-yl) azetidin-3-one] |  |

| Emax [1] | EC50 | Compound | Emax |
| --- | --- | --- | --- |
| 61.8% | 110 nM | Cc1nc2oc3c(NCc4ccc(C(C)(C)O)cc4)ncnc3c2c(C)c1Cl [Compound 39, 2-[4-[[(8-chloro-7,9-dimethyl-pyrido[3′,2′:4,5]furo[3,2-d]pyrimidin-4-yl)amino]methyl]phenyl] propan-2-ol] |  |
| 39.8% | 1690 nM | CNc1ncnc2c1oc1nc(C)c(Cl)c(C)c12 [Compound 44, 8-chloro-N,7,9-trimethyl-pyrido[3′,2′:4,5]furo[3,2-d]pyrimidin-4-amine hydrochloride] |  |
| 40.6% | 1250 nM | CCNc1ncnc2c1oc1nc(C)c(Cl)c(C)c12 [Compound 47, 8-chloro-N-ethyl-7,9-dimethyl-pyrido[3′,2′:4,5]furo[3,2-d]pyrimidin-4-amine hydrochloride] |  |
| 70% | 7840 nM | Cc1nc2oc3c(NC4CC4c4ccc(F)c(F)c4)ncnc3c2c(C)c1Cl (stereo not drawn) [Compound 51, 8-chloro-N-[2-(3,4-difluorophenyl)cyclopropyl]-7,9-dimethyl-pyrido [3′,2′:4,5]furo[3,2-d]pyrimidin-4-amine hydrochloride] |  |
| 37.7% | 3370 nM | Cc1cc(C)c2c(n1)oc1c(N3CC4(COC4)C3)ncnc12 [Compound 56, 7,9-dimethyl-4-(2-oxa-6-azaspiro[3.3]heptan-6-yl)pyrido[3′,2′:4,5]furo[3,2-d]pyrimidine] |  |
| 23.7% | 4270 nM | Cc1cc(C)c2c(n1)oc1c(NCc3cccc(C(C)(C)O)c3)ncnc12 [Compound 57, 2-[3-[[(7,9-dimethylpyrido[3′,2′:4,5]furod[3,2-]pyrimidin-4-yl)amino]methyl]phenyl] propan-2-ol] |  |
| 34.9% |  | Cc1cc(C)c2c(n1)oc1c(NC3CN(c4ncc(F)cn4)C3)ncnc12 [Compound 59, N-[1-(5-fluoropyrimidin-2-yl)azetidin-3-yl]-7,9-dimethyl-pyrido[3′,2′:4,5]furo[3,2-d]pyrimidin-4-amine hydrochloride] |  |
| 56.3% | 3380 nM | Cc1cc(C)c2c(n1)oc1c(NC3CC3c3ccc(F)c(F)c3)ncnc12 (stereo not drawn) [Compound 61, hydrochloride] |  |
|  |  | Cc1cc(C)c2c(n1)oc1c(NC3CC3)ncnc12 [Compound 62, N-cyclopropyl-7,9-dimethyl-pyrido[3′,2′:4,5]furo[3,2-d]pyrimidin-4-amine hydrochloride] | 63.9% |
| 36.8% |  | Cc1nnc2oc3c(NC4CN(c5ncc(F)cn5)C4)ncnc3c2c1C [Compound 63, N-[1-(5-Fluoropyrimidin-2-yl)azetidin-3-yl]-3,4-dimethyl-pyrimido[4′,5′:4,5]furo[2,3-c]pyridazin-8-amine] |  |
| 58.2% | 862 nM | Cc1nnc2oc3c(NCc4ccc(C5(O)CCC5)cc4)ncnc3c2c1C [Compound 64, 1-[4-[[(3,4-dimethylpyrimido [4′,5′:4,5]furo[2,3-c]pyridazin-8-yl)amino]methyl]phenyl] cyclobutanol] |  |
| 61.2% | 2290 nM | Cc1nnc2oc3c(NCc4ccc(C(C)(C)O)cc4)ncnc3c2c1C [Compound 65, 2-[4-[[(3,4-dimethylpyrimido[4′,5′:4,5]furo[2,3-c]pyridazin-8-yl)amino]methyl]phenyl]propan-2-ol] |  |
| 61.1% |  | Cc1nnc2oc3c(NCc4cccc(C5(O)CCC5)c4)ncnc3c2c1C [Compound 66, 1-[3-[[(3,4-dimethylpyrimido [4′,5′:4,5]furo[2,3-c]pyridazin-8-yl)amino]methyl]phenyl]cyclobutanol] |  |
| 63.4% |  | Cc1nnc2oc3c(NCc4cccc(C(C)(C)O)c4)ncnc3c2c1C [Compound 67, 2-[3-[[(3,4-dimethylpyrimido [4′,5′:4,5]furo[2,3-c]pyridazin-8-yl)amino]methyl]phenyl]propan-2-ol] |  |
| 66.5% | 1310 nM | Cc1nnc2oc3c(NC4CC4)ncnc3c2c1C [Compound 68, N-cyclopropyl-3,4-dimethyl-pyrimido [4′,5′:4,5]furo[2,3-c]pyridazin-8-amine] |  |
| 54.8% |  | Cc1nnc2oc3c(NC4CCC4)ncnc3c2c1C [Compound 69, N-cyclobutyl-3,4-dimethyl-pyrimido [4′,5′:4,5]furo[2,3-c]pyridazin-8-amine] |  |
| 45.9% | 818 nM | Cc1nnc2oc3c(NC4CCCC4)ncnc3c2c1C [Compound 70, N-cyclopentyl-3,4-dimethyl-pyrimido [4′,5′:4,5]furo[2,3-c]pyridazin-8-amine] |  |

| Compound | Emax [1] | EC50 | Emax |
| --- | --- | --- | --- |
| Cc1cc(C)c2c(n1)oc1c(NC3CCC3)ncnc12 [Compound 55, N-Cyclobutyl-7,9-dimethyl-pyrido[3′,2′:4,5]furo[3,2-d]pyrimidin-4-amine hydrochloride] |  | 1590 nM | 44.2% |
| Cc1cc(C)c2c(n1)oc1c(NC3CN(c4cc(Cl)ncc4Cl)C3)ncnc12 [Compound 60, N-[1-(2,5-dichloro-4-pyridyl)azetidin-3-yl]-7,9-dimethyl-pyrido[3′,2′:4,5]furo[3,2-d]pyrimidin-4-amine dihydrochloride] |  | 1490 nM | 49.3% |
